The values below come from paper PMC10518255, “A first-in-class pan-lysyl oxidase inhibitor impairs stromal remodeling and enhances gemcitabine response and survival in pancreatic cancer” (Nature Cancer, 2023).

Assay [1] has as its system KPC mouse model of PDAC. Nature of the assay: Quantification of liver metastases (H&E), KPC survival study (Fig. 4g). Conditions: for liver metastases/mm2: individual animals. Type of assay: in vivo. The procedure:
(§1) Fig. 4 PXS-5505 administered in a KPC in vivo survival study. a, Schematic of the KPC in vivo survival study. Presence of a primary tumor in KPC mice was confirmed by two independent researchers (positive diagnosis) before commencement of daily treatment (Tx) on one of four treatment arms as follows: vehicle, 0.9% saline; Gem, twice-weekly gemcitabine (100 mg kg^−1 i.p.); PXS-5505, daily PXS-5505 at 20 mg kg^−1 i.p.; and PXS-5505 + Gem, daily PXS-5505 at 20 mg kg^−1 i.p. + twice-weekly gemcitabine (100 mg kg^−1 i.p.). b, Table of median survival (since diagnosis/commencement of treatment) across the four treatment groups (n = 30 biologically independent animals (vehicle), n = 31 biologically independent animals (Gem), n = 36 biologically independent animals (PXS-5505), n = 46 biologically independent animals (PXS-5505 + Gem)). c, Kaplan–Meier curves for overall survival across treatment arms (n = 30 biologically independent animals (vehicle), n = 31 biologically independent animals (Gem), n = 36 biologically independent animals (PXS-5505), n = 46 biologically independent animals (PXS-5505 + Gem)). P values determined by log-rank (Mantel–Cox) test. d, Representative maximum intensity projections of SHG multiphoton imaging for tumors from each treatment group (n = 1 FOV taken from one biologically independent animal per group) at end point (scale bars, 100 μm) and quantification of SHG peak signal intensity (n = 5 biologically independent animals per group and five FOV per animal). Data are mean ± s.d. […] Quantification of metastases (n = 18 biologically independent animals (vehicle), n = 18 biologically independent animals (Gem), n = 17 biologically independent animals (PXS-5505), n = 15 biologically independent animals (PXS-5505 + Gem)). Data are mean ± s.d.
The 4-µm formalin-fixed paraffin-embedded (FFPE) sections were cut and stained for H&E following standard histopathology methodologies or stained for CK19 using the Bond RX H2(30) protocol detailed above. […] The total number of liver metastases were quantified and determined using QuPath[57].

Assay [2] has as its system Lysyl oxidase family activity in aorta. Nature of the assay: Lysyl oxidase family activity in aorta of KPC tumor bearing mice at end point, fluorometric activity assay. The conditions noted are these: for Lysyl oxidase family activity measured in the aorta of KPC tumour bearing mice at endpoint (signal over noise): Extended Data 5A, fluorometric activity assay, noise measured with 300 µM ßAPN, individual animals. Type of assay: in vivo, mouse. How it is done:
KPC mice were treated from the time at which palpable tumors were detected (typically 10 to 12 weeks of age) and continued until the study end point. Mice were treated daily with PXS-5505 (20 mg kg^−1 i.p.) or vehicle (0.9% saline) and twice weekly with gemcitabine (100 mg kg^−1 i.p.) or vehicle (0.9% saline).
Extended Data Fig. 5 PXS-5505 in combination with gemcitabine in vivo. a. […] Signal is defined as the enzyme activity in the aorta, while noise is measured in the presence of a high concentration (300 µM) BAPN to abolish any lysyl oxidase family activity. […] Data presented as mean values +/− SD b. […] Data presented as mean values +/− SD. c. FITC-dextran (molecular weight: 10 kDa) signal quantification from KPC tumor end point from each treatment group (vehicle n = 3 biologically independent animals, PXS-5505 n = 5 biologically independent animals, Gem n = 5 biologically independent animals, PXS-5505 + Gem n = 5 biologically independent animals). 4 ROIs taken per mouse. P-values determined by Welchs t-test. Data presented as mean values +/− SD. Scale bars = 100 μm d. Quantification of red birefringent (mature) collagen fibers from human PDXs at end point after 3 cycles of treatment, treated as indicated. […] Data presented as mean values +/− SD. Scale bars = 100 μm e. Quantification of bulk modulus (stiffness) by unconfined compression testing of end point human PDX tumors from each treatment group (vehicle n = 5 biologically independent animals, Gem n = 5 biologically independent animals, PXS-5505 n = 5 biologically independent animals, PXS-5505 + Gem n = 5 biologically independent animals) [individual tumors shown]). […] FITC-dextran (molecular weight 10 kDa) signal quantification from human PDXs from each treatment group (vehicle n = 4 biologically independent animals, PXS-5505 n = 5 biologically independent animals, Gem n = 5 biologically independent animals, PXS-5505 + Gem n = 5 biologically independent animals). […] P values determined by Welchs t-test. g. […] Quantification of green birefringent (nascent) collagen fibers from human PDXs at end point, treated as indicated. […]

Assay [3] concerns KPC mouse model of PDAC. Nature of the assay: KPC in vivo survival study. Conditions: KPC mice; PXS-5505 20 mg kg−1 i.p. daily, gemcitabine 100 mg kg−1 i.p. twice weekly.
Excerpt: (§2) The maximal tumor burden allowed by ethics was not exceeded.
as §2

The next assay deals with KPC PDAC tumors. In words: SHG multiphoton imaging of fibrillar collagen in end-point KPC tumors. The format is in vivo, mouse. Conditions: for SHG peak signal intensity: 5 animals per group, 5 FOV per animal, single FOV values. How it is done: as §1
SHG imaging of fibrillar collagens was employed to analyze collagen density and organization as performed previously[28],[34],[58]. […] Intensity was recorded with a RLD HyD detector (440/20 nm). […] SHG signal intensities were measured using MATLAB (MathWorks) as described previously[28],[34],[58].

SMILES strings stand for the structures. “And” between values parts separate entries of the source, which are not always exact repeats. Equal entries are not always repeated.

`Nc1ccn([C@@H]2O[C@H](CO)[C@@H](O)C2(F)F)c(=O)n1` [Gem, gemcitabine]: the “metastatic foci / metastatic burden in the liver” value in the assay on KPC mouse model of PDAC [1] (compared to vehicle) is “did not reduce the number of metastatic foci”. Further, the “liver metastases/mm2” value with KPC mouse model of PDAC [1] was 0.000998 /mm2 and 0.00153 /mm2 and 0.000533 /mm2 and 0.002596 /mm2 and 0.002539 /mm2 and 0.002266 /mm2 and 0.001775 /mm2 and 0.001805 /mm2 and 0.001681 /mm2 and 0.002472 /mm2 and 0.001465 /mm2 and 0.003681 /mm2 and 0.001157 /mm2 and 0.004279 /mm2 and 0.0007747 /mm2 and 0.000926 /mm2 and 0.002131 /mm2 and 0.001372 /mm2. In addition, the “Lysyl oxidase family activity measured in the aorta of KPC tumour bearing mice at endpoint (signal over noise)” value in assay [2] is 2.059 and 2.616 and 2.089 and 2.043 and 2.04 and 2.065 and 2.364. The “Median survival since diagnosis” value in the assay on KPC mouse model of PDAC [3] is 125 days. Further, in the assay with KPC PDAC tumors, the “fibrillar collagen / stromal content by SHG” value is on record as “significantly increased stromal content”; the “SHG peak signal intensity” value is 116.837 and 121.251 and 74.7808 and 58.0704 and 58.6614 and 88.5172 and 66.9647 and 76.4458 and 85.1379 and 61.658 and 86.6036 and 56.3648 and 49.2982 and 91.4138 and 56.7061 and 67.2683 and 73.645 and 75.3134 and 83.1972 and 82.1163 and 64.6996 and 72.2796 and 40.261 and 45.2578 and 54.2825.
On to `Cl.Cl.NC/C=C(\F)CS(=O)(=O)c1cccc2cccnc12.O` [PXS-5505, (Z)-3-fluoro-4-(quinolin-8-ylsulfonyl)but-2-en-1-amine dihydrochloride monohydrate], for which the “liver metastases/mm2” value in the assay with KPC mouse model of PDAC [1] is 0.001562 /mm2 and 0.001978 /mm2 and 0.00288 /mm2 and 0.001774 /mm2 and 0.002087 /mm2 and 0.001249 /mm2 and 0.00165 /mm2 and 0.00324 /mm2 and 0.001709 /mm2 and 0.002256 /mm2 and 0.001847 /mm2 and 0.001474 /mm2 and 0.001116 /mm2 and 0.0009543 /mm2 and 0.001461 /mm2 and 0.00148 /mm2 and 0.001125 /mm2. Besides, in assay [2], the “Lysyl oxidase family activity measured in the aorta of KPC tumour bearing mice at endpoint (signal over noise)” value was 1.144 and 1.3025 and 1.519 and 1.787 and 1.62 and 1.558. The “lysyl oxidase family activity in the aorta at end point” value in assay [2] (KPC tumor bearing mice) was “confirming lysyl oxidase family inhibition”. The “Median survival since diagnosis” value in the assay on KPC mouse model of PDAC [3] is 81 days. The “SHG peak signal intensity” value with KPC PDAC tumors is 45.7826 and 42.6725 and 46.4759 and 51.7331 and 29.3681 and 51.0162 and 24.7531 and 11.1698 and 19.0235 and 45.4063 and 19.8592 and 24.5743 and 17.8792 and 16.4101 and 14.0868 and 27.3224 and 22.509 and 34.8879 and 24.4703 and 26.4774 and 34.2776 and 17.1388 and 29.5006 and 45.3832 and 44.8772.
